Assay results: PubChem BioAssay (NCI)
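96-well plates; 48 h exposure; 5 concentrations. Endpoints by linear interpolation between flanking doses. Not reached: highest tested concentration assigned. Here, GI50 denotes the concentration required for 50% inhibition of growth. TGI denotes the concentration required for complete inhibition of growth.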

Assays:
Experiment in all cases: NCI tumour cell line growth inhibition, 48 h
[1] = test system: TK-10 renal
[2] = test system: MDA-MB-435
[3] = test system: SF-268 CNS
[4] = test system: HT29 colon
[5] = test system: LOX IMVI melanoma
[6] = test system: T-47D breast
[7] = test system: KM12 colon
[8] = test system: NCI/ADR-RES ovarian
[9] = test system: SNB-19 CNS
[10] = test system: MALME-3M melanoma

SMILES	GI50 [1] [µM]	TGI [1] [µM]	GI50 [2] [nM]	TGI [2] [µM]	GI50 [3] [µM]	TGI [3] [µM]	GI50 [4] [µM]	TGI [4] [µM]	GI50 [5] [nM]	TGI [5] [µM]	GI50 [6] [µM]	TGI [6] [µM]	GI50 [7] [µM]	TGI [7] [µM]	GI50 [8] [µM]	TGI [8] [µM]	GI50 [9] [µM]	TGI [9] [µM]	GI50 [10] [µM]	TGI [10] [µM]
N=C(N)SCc1c2ccccc2c(CSC(=N)N)c2ccccc12	22.3	45.3	12100	32.6	4.32	26	5.94	21.9	1400	21.9	3.97	22.1	10.3	23.4	23.8	> 100	11.5	25	6.85	25.2
COCCNc1ccc2c3c(cccc13)C(=O)N(CCN(C)C)C2=O	4.2	22.1	8150	> 25	8.95	> 25	7.66	> 25	7060	> 25	4.87	23.8	8.65	> 25	8.98	> 25	4.11	> 25	6.13	21.1
CC1=NN(c2ccc(S(=O)(=O)O)cc2)C(=O)/C1=C/c1ccc(Cl)cc1	–	> 100	–	> 100	–	> 100	–	> 100	–	> 100	–	> 100	–	> 100	–	> 100	–	> 100	–	> 100
CCCc1cc(=O)n2c(C(=O)Nc3cccc(C(=O)OCC)c3)c(C(=O)Nc3ccc(F)cc3)sc2n1	5.72	22.1	> 140000	> 140	26.6	128	87.9	> 140	6650	> 140	13.5	> 140	42.5	> 140	22.3	> 140	25.5	132	13.1	58
C[C@@H]1CCC([C@@H](C)[C@H]2CC[C@H]3[C@@H]4CC[C@H]5C[C@@H](O)CC[C@]5(C)[C@H]4CC[C@]23C)=NC1	–	> 100	–	> 100	–	> 100	–	> 55.4	–	> 100	–	> 61.9	–	> 59.7	–	> 100	–	> 100	–	> 100
CCCCCCCCC/C(=N\NC(=O)c1ccncc1)c1ccc(O)c(O)c1O	0.196	> 100	456	> 100	0.142	> 23.4	0.513	32.9	93.7	11.9	0.596	> 93.6	0.348	> 100	0.093	11.4	0.272	> 100	0.491	> 100
N/C(=N/N=C/c1ccccc1)N/N=C\c1ccccc1	10.7	> 100	1760	6.61	9.66	> 100	3.25	52	6270	84.7	4.73	> 100	2.76	> 100	3.26	> 100	> 100	> 100	6.84	27.2
COc1ccc(Nc2cc(C)nc(NCc3ccccc3)n2)cc1	5.48	18.9	3160	13	13.1	36.3	2.81	12.7	2200	6.38	2.6	11.3	6.2	21.9	2.92	17.6	5.02	28.8	2.36	9.2
C[C@]12CC[C@@H]3c4cc(O)c(O)cc4CC[C@H]3[C@@H]1CC[C@@H]2O	24.8	> 74.9	286	1.1	5.81	> 83.2	27.2	61.3	5970	23.6	7.73	27.7	8.23	22.3	1.3	> 45.4	11.1	> 100	0.708	44.4
COc1cccc(/C=N/NC(=O)c2ccccc2N2CCCC2)c1O	5.38	> 100	18300	> 100	6.46	> 100	30.4	> 100	2540	> 100	3.02	36.9	38.4	> 100	2.8	> 100	8.93	> 100	15	88.1
[Cl][Hg][c]1ccc(Cl)s1	1.66	3.09	2080	5.7	3.48	13.3	1.14	4.66	1530	3.24	0.908	3.37	14.3	28	3.31	23.3	3.15	13.4	1.3	2.94
CC1(C)CC[C@]2(C(=O)O)CC[C@]3(C)C(=CC[C@@H]4[C@@]5(C)C[C@H](O)[C@H](O)[C@@](C)(C(=O)O)[C@@H]5CC[C@]43C)[C@@H]2C1	–	> 100	–	> 100	–	> 100	–	> 100	–	> 100	–	> 100	–	> 100	–	> 100	–	> 100	–	> 100
CCCCCCCCCCCCSC1=C(Cl)C(=O)C(OC)=C(OC)C1=O	2.24	24.6	653	10.2	3.08	16.1	3.22	17.5	462	5.38	0.42	2.73	1.85	11.6	2.48	8.94	3.64	15	0.539	14.2
O=C(/C(=C/c1ccc([N+](=O)[O-])cc1)SCc1ccc(Cl)cc1)c1ccc(F)cc1	12.9	29.5	2230	5.87	4.95	21.6	2	4.12	1630	3.1	4.32	19.3	2.71	8.08	2.78	11.2	1.87	4.11	3.22	12.3
c1ccc2cc(NCNc3ccc4ccccc4c3)ccc2c1	–	> 67.6	–	3.32	–	> 100	–	41.3	–	25.9	–	49.4	–	38.7	–	72.5	–	> 100	–	20
CCOC(=O)Nc1nc2ccc(Br)cc2s1	> 50	> 50	> 50000	> 50	> 50	> 50	> 50	> 50	> 50000	> 50	> 50	> 50	> 50	> 50	> 50	> 50	> 50	> 50	> 50	> 50
Cc1ccc(-c2cc3c4c(nc5ccccc53)C(=O)c3cccnc3-c4n2)cc1	26.4	97.3	5080	16	17	61.1	8.75	22.8	3400	14.5	22.7	99.4	6.46	25.7	14.3	49.7	13.2	60.9	17.8	32.6
CN1CCC2(CC1)NC(=O)c1c(c3ccc(Cl)c(Cl)c3n1C)C2C#N (stereo not given)	10.5	23.4	2290	6.58	4.54	15.2	3.95	23.6	4710	18.1	5.45	20.3	3.84	8.55	7.46	23	12.8	27.4	3.11	9.52
C[C@]12CC[C@@H]3c4cc(OC(F)F)c(OS(N)(=O)=O)cc4CC[C@H]3[C@@H]1CC[C@@H]2OS(N)(=O)=O	13.6	49.1	241	3.04	6.44	49.8	2.25	22.5	1250	19.1	1.56	31.7	1.62	20	0.696	28.9	1.48	21.8	2.35	22
COc1cc(-c2oc3c(OC)cc(OC)c(O)c3c(=O)c2OC)cc(OC)c1OC	–	> 100	–	> 100	–	> 100	–	> 100	–	> 100	–	> 100	–	> 100	–	> 100	–	> 100	–	> 100
COc1ccc2cc(C(=O)/C=C/c3ccc(N(C)C)cc3)ccc2c1	43.9	> 100	93100	> 100	42.6	> 100	> 100	> 100	48100	> 100	> 100	> 100	> 100	> 100	49.8	> 100	> 100	> 100	> 100	> 100
COc1ccc2c(c1)CC[C@@H]1[C@@H]2CC[C@]2(C)c3c(cc(C(=O)O)c4sccc34)C[C@@H]12	19.2	48.1	18400	39.6	17.6	48.3	13.8	34	17700	42.8	8.21	49	10.6	23.5	15.4	40.2	17.8	48.4	22.6	42.7
Clc1ccc(Nc2ccnc(N3CCN(c4ccnc5cc(Cl)ccc45)CC3)n2)cc1	3.43	8.5	1860	5.99	3.33	16.2	2.03	4.88	1840	3.58	1.99	8.53	3.04	11.5	2.68	7.83	3.68	74.5	2.32	9.82
O=C(NC(=O)c1ccccc1[N+](=O)[O-])Nc1ccc(Oc2ncc(Cl)cn2)c([N+](=O)[O-])c1	–	> 100	–	0.197	–	> 100	–	3.31	–	> 100	–	> 100	–	> 66.3	–	3.15	–	> 100	–	> 100
Cc1cc(O)cc(C)c1/C=C/c1cncc(C(N)=O)c1	5.99	> 25	538	1.77	3.99	> 25	6.9	> 23.4	1940	> 25	1.8	> 25	1.25	> 25	1.07	> 10.9	4.34	> 25	1.64	24.4
O=[N+]([O-])c1ccc(C2CC(c3ccccc3)=Nc3ccccc3S2)cc1 (stereo not given)	> 100	> 100	> 100000	> 100	> 100	> 100	7.62	> 100	3680	> 100	> 100	> 100	6.13	97.5	> 100	> 100	> 100	> 100	> 100	> 100
